Assays:
aged rats [1] = assay: Passive avoidance learning test in aged rats; type: in vivo, rat; details: aged male rats of transgenic strain, test started on day 14 of treatment, vs control group
Description: (§1) Male (3 to 27 months old) rats of transgenic strain were used. The aged rats were divided into the following four groups.
(§2) 1) Control group: Repeated administration of placebo pill.
(§3) 2) 4,4′-diaminodiphenylsulphone group: Repeated oral administration of 4,4 -diaminodiphenylsulphone 1 mg/kg.
(§4) 3) Cholinesterase inhibitor group: Repeated oral administration of donepezil 0.3 mg/kg.
(§5) 4) Combination group: Repeated oral administration of 4,4′-diaminodiphenylsulphone 3 mg/kg and donepezil 0.3 mg/kg.
(§6) In the combination group, 4,4′-diaminodiphenylsulphone was administered 30 minutes after administration of donepezil.
(§7) Passive avoidance learning test was started on day 14 of treatment, and Morris water maze learning test on day 20 of treatment.
(§8) On each day of experiment, 4,4′-diaminodiphenylsulphone and a cholinesterase inhibitor were administered 30 minutes and 1 hour, respectively, before initiation of the trial.
The passive avoidance learning test was performed using a chamber consisting of light and dark compartments. […]
In each trial, the latency from opening of the slide door until the animal moved to the dark compartment (step-through latency) was measured.

aged rats [2] = assay: Morris water maze learning test in aged rats; type: in vivo, rat; details: aged male rats of transgenic strain, test started on day 20 of treatment, vs control group
Description: as §1, §2, §3, §4, §5, §6, §7, §8
Same animals used in the passive avoidance test were subjected for the water maze task. However, some rats can not swim well in the water tank, thus they were excluded in the water maze task. The water maze learning test was performed on young rats (saline, 10 animals) and aged rats (control group, 9 animals; 4,4′-diaminodiphenylsulphone group, 9 animals; Compound B group, 8 animals; combination group, 8 animals). […]

| SMILES | passive avoidance learning deficit (step-through latency / avoidance time) (aged rats [1]; repeated oral 0.3 mg/kg) | water maze learning deficit (latency to find platform submerged in the water) (aged rats [2]; repeated oral 0.3 mg/kg) | passive avoidance learning deficit (step-through latency / avoidance time) (aged rats [1]; repeated oral 1 mg/kg) | water maze learning deficit (latency to find platform submerged in the water) (aged rats [2]; repeated oral 1 mg/kg) |
| --- | --- | --- | --- | --- |
| COc1cc2c(cc1OC)C(=O)C(CC1CCN(Cc3ccccc3)CC1)C2.Cl (stereo not shown) [donepezil, 2,3-dihydro-5,6-dimethoxy-2-[[1-(phenylmethyl)-4-piperidinyl]methyl]-1H-inden-1-one hydrochloride] | significant improvement of the learning deficit | significant improvement in water maze learning deficit |  |  |
| Nc1ccc(S(=O)(=O)c2ccc(N)cc2)cc1 [4,4′-diaminodiphenylsulphone] |  |  | significant improvement of the learning deficit | significant improvement in water maze learning deficit |

— patent US20030144255A1, “Compositions for prevention and treatment of dementia” (priority 2002, published 2003)
